According to patent US9113629B2, “4-amino-6-(4-substituted-phenyl)-picolinates and 6-amino-2-(4-substituted-phenyl)-pyrimidine-4-carboxylates and their use as herbicides” (DOW AGROSCIENCES LLC, priority 2013, dated 2015):
Like-named read-outs stand apart in the source and are kept apart here.

Assays:
[1] = tested on: Key Broadleaf Weed and Crop Species; assay: Post-emergent Test II herbicidal activity (Table 5); assay type: in vivo; conditions: post-emergence, 336 h, post-emergent, 14 days after application; for pest or weed control at 70 g/ha: 70 g ai/ha; for pest or weed control at 140 g/ha: 140 g ai/ha
In short: (§1)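 Percent injury, 0 (none) to 100 (complete kill), was judged visually 14 d after spraying young plants at the first or second true leaf stage with compound in an acetone/DMSO aqueous carrier at 187 L/ha. Plants were kept in a greenhouse at 23–29 °C by day.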

[2] = tested on: Key Grass and Sedge Weeds as well as Grass Crops; assay: Post-emergent Test II herbicidal activity (Table 6); assay type: in vivo; conditions: post-emergence, 336 h; for pest or weed control at 70 g/ha: application rate 70 g ai/ha; for pest or weed control at 140 g/ha: application rate 140 g ai/ha
In short: as §1

[3] = ABUTH: velvetleaf (Abutilon theophrasti), read-out: Visual Growth Reduction (%) 14 Days After Application ABUTH
[4] = AMARE: redroot pigweed (Amaranthus retroflexus), read-out: Visual Growth Reduction (%) 14 Days After Application AMARE
[5] = BRSNN: oilseed-rape, canola (Brassica napus), read-out: Visual Growth Reduction (%) 14 Days After Application BRSNN
[6] = CHEAL: lambsquarters (Chenopodium album), read-out: Visual Growth Reduction (%) 14 Days After Application CHEAL
[7] = EPHHL: wild poinsettia (Euphorbia heterophylla), read-out: Visual Growth Reduction (%) 14 Days After Application EPHHL
[8] = HELAN: sunflower (Helianthus annuus), read-out: Visual Growth Reduction (%) 14 Days After Application HELAN
[9] = VIOTR: wild pansy (Viola tricolor), read-out: Visual Growth Reduction (%) 14 Days After Application VIOTR
[10] = Triticum aestivum, TRZSS (wheat), read-out: Visual Growth Reduction (%) 14 Days After Application, TRZSS
[11] = CYPES: yellow nutsedge (Cyperus esculentus), read-out: Visual Growth Reduction (%) 14 Days After Application, CYPES
[12] = DIGSA: crabgrass (Digitaria sanguinalis), read-out: Visual Growth Reduction (%) 14 Days After Application, DIGSA
[13] = ECHCG: barnyardgrass (Echinochloa crus-galli), read-out: Visual Growth Reduction (%) 14 Days After Application, ECHCG
[14] = ORYSA: rice (Oryza sativa), read-out: Visual Growth Reduction (%) 14 Days After Application, ORYSA
[15] = SETFA: giant foxtail (Setaria faberi), read-out: Visual Growth Reduction (%) 14 Days After Application, SETFA
[16] = SORVU: grain sorghum (Sorghum vulgare), read-out: Visual Growth Reduction (%) 14 Days After Application, SORVU
[17] = ZEAMX: maize, corn (Zea mays), read-out: Visual Growth Reduction (%) 14 Days After Application, ZEAMX

Structure (SMILES) | pest or weed control at 70 g/ha [1, 3] [%] | pest or weed control at 140 g/ha [1, 3] [%] | pest or weed control at 70 g/ha [1, 4] [%] | pest or weed control at 140 g/ha [1, 4] [%] | pest or weed control at 70 g/ha [1, 5] [%] | pest or weed control at 140 g/ha [1, 5] [%] | pest or weed control at 70 g/ha [1, 6] [%] | pest or weed control at 140 g/ha [1, 6] [%] | pest or weed control at 70 g/ha [1, 7] [%] | pest or weed control at 140 g/ha [1, 7] [%] | pest or weed control at 70 g/ha [1, 8] [%] | pest or weed control at 140 g/ha [1, 8] [%] | pest or weed control at 70 g/ha [1, 9] [%] | pest or weed control at 140 g/ha [1, 9] [%] | pest or weed control at 70 g/ha [2, 10] [%] | pest or weed control at 140 g/ha [2, 10] [%] | pest or weed control at 70 g/ha [2, 11] [%] | pest or weed control at 140 g/ha [2, 11] [%] | pest or weed control at 70 g/ha [2, 12] [%] | pest or weed control at 70 g/ha [2, 13] [%] | other results
COC(=O)c1nc(-c2cc(F)c(Br)cc2F)c(F)c(N)c1Cl [Compound 51, methyl 4-amino-6-(4-bromo-2,5-difluorophenyl)-3-chloro-5-fluoropicolinate] | 95 to 100 | 95 to 100 | 95 to 100 | 95 to 100 | 95 to 100 | 95 to 100 | 95 to 100 | 95 to 100 | 95 to 100 | 95 to 100 | 95 to 100 | 95 to 100 | 95 to 100 | 95 to 100 | 60 to 74 | 85 to 94 | 95 to 100 | 95 to 100 | 95 to 100 | 95 to 100 | pest or weed control at 140 g/ha [2, 13]: 95 to 100%; pest or weed control at 70 g/ha [2, 14]: 0 to 29%; pest or weed control at 140 g/ha [2, 14]: 0 to 29%; pest or weed control at 70 g/ha [2, 15]: 95 to 100%; pest or weed control at 140 g/ha [2, 15]: 95 to 100%; pest or weed control at 70 g/ha [2, 16]: 95 to 100%; pest or weed control at 140 g/ha [2, 16]: 95 to 100%; pest or weed control at 70 g/ha [2, 17]: 85 to 94%; pest or weed control at 140 g/ha [2, 17]: 85 to 94%
Nc1cc(-c2ccc(I)c(F)c2)nc(C(=O)O)c1Cl [Compound 77, 4-amino-3-chloro-6-(3-fluoro-4-iodophenyl)picolinic acid] | 85 to 94 | 95 to 100 | 95 to 100 | 95 to 100 | 75 to 84 | 85 to 94 | 95 to 100 | 95 to 100 | 95 to 100 | 95 to 100 | 85 to 94 | 85 to 94 | 0 to 29 | 0 to 29 | 45 to 59 | 45 to 59 | 0 to 29 | 45 to 59 | 75 to 84 | 60 to 74 | pest or weed control at 140 g/ha [2, 12]: 85 to 94%; pest or weed control at 140 g/ha [2, 13]: 60 to 74%; pest or weed control at 70 g/ha [2, 14]: 0 to 29%; pest or weed control at 140 g/ha [2, 14]: 0 to 29%; pest or weed control at 70 g/ha [2, 15]: 0 to 29%; pest or weed control at 140 g/ha [2, 15]: 0 to 29%; pest or weed control at 70 g/ha [2, 16]: 45 to 59%; pest or weed control at 140 g/ha [2, 16]: 45 to 59%; pest or weed control at 70 g/ha [2, 17]: 0 to 29%; pest or weed control at 140 g/ha [2, 17]: 0 to 29%
